Earlier results as cited in patent publication US20250311762A1, “FORMULATION AND METHOD FOR AN EXERCISE SUPPORTING NUTRITIONAL SUPPLEMENT” (BullFit, LLC., priority 2024, published 2025).

Columns and labels:
cognitive function = settings: 2 g per day for 5 days during a demanding military combat training course
[1] = tested on: anaerobic strength performance; settings: athletes supplementing with Betaine

Row | Structure (SMILES) | cognitive function relative to placebo (cognitive function) | squat, bench press, and other activities [1]
1 | N[C@@H](Cc1ccc(O)cc1)C(=O)O [L-tyrosine, L-Tyrosine] | improved various aspects of cognitive function relative to placebo | 
2 | C[N+](C)(C)CC(=O)[O-] [Betaine, trimethylglycine] |  | increased their squat, bench press, and other activities
